Data taken from publication PMC10038264, “A new family of glutamate-gated chloride channels in parasitic sea louse Caligus rogercresseyi: A subunit refractory to activation by ivermectin is dominant in heteromeric assemblies” (PLOS Pathogens, 2023).
Where “and” joins values, the source holds several entries; their conditions need not be identical. Equal entries are not always repeated. Entries after “also recorded” stand apart in the source; their conditions may differ. Where two headings read alike, the source gives them in different places.

Key:
AgGluCl = test system: AgGluCl; parameters: method as in PMID 7935817, PMID 8702744, PMID 25994631; settings: read-out: EC50 glutamate; cited from earlier work
CrGluCl-B = test: Two-electrode voltage-clamp of Xenopus oocytes expressing CrGluCl-B; format: cell-based, Caligus rogercresseyi; settings: for activation by ivermectin (EC50 Ivermectin column): CrGluCl-B WT alone, 1-3 μM ivermectin
Description: (§1) Adult female Xenopus laevis frogs were anaesthetized by immersion in a1g/L solution tricaine (Ethyl 3-aminobenzoate methanesulfonate, Sigma) buffered to pH 7 with NaHCO3. Surgery was performed 30–40 min later, once the frog was completely anaesthetized judging by loss of reflexes. Ovarian lobes were removed through 1 cm abdominal incision and then kept at 16°C in Barth’s modified solution containing (in mM): 88 NaCl, 1 KCl, 0.4 CaCl2, 0.3 Ca (NO3)2, 0.8 MgSO4, 2.4 NaHCO3, 5 Hepes, 2.5 sodium pyruvate, 100 μg/ml gentamicin sulfate, 100 U/ml penicillin, 100 μg/ml streptomycin, 250 μg/ml amphotericin B, 0.22μm filtered and adjusted to pH 7.5 with Tris-Base. Osmolarity was brought to 220 mOsm with saccharose. The oocytes were manually defolliculated on the same day of extraction and the following day 20 ng cRNA in nuclease-free water was injected into stage V-VI oocytes using a FemtoJet microinjector (Eppendorf). Finally, the injected oocytes were stored in 96 well plates containing Barth’s modified solution and kept at 16°C until experiment day.
Current measurements at controlled membrane potentials (voltage-clamp experiments) were performed using two intracellular microelectrodes in defolliculated Xenopus oocytes previously microinjected with 20 ng of cRNA. Voltage-clamp recording was performed at room temperature using a TURBO TEC-10CX amplifier (npi electronic GmbH, Tamm, Germany) and PClamp 10.6 software (Axon Instruments, USA), 1 to 4 days after oocyte injection. The oocytes were recorded in a chamber (Model RC-1Z, Warner Instrumenst, USA) under continuous superfusion. […] Reference was an Ag-AgCl electrode connected to the bath via a 3 M KCl in 3% agar bridge. Currents were recorded continuously during the experiments without interruptions for solution changes. Oocytes were held at -30 mV and a voltage protocol consisting of a voltage drop to -100 mV for 25ms followed by a 360 ms ramp from -100 mV to 60mV applied with a period of 565 ms was continuously given. The signal filtered at 1 kHz was acquired with a Digidata 1440A Analog-to-Digital Converter and analyzed with Axon pClamp 10.6 software. The solution that bathed the oocytes during the electrophysiological recordings had the following composition (mM): 115 NaCl, 2 KCl, 1.8 CaCl2, 1 MgCl2, 10 HEPES pH 7.5 obtained with NaOH. For the low chloride solution, all the NaCl was replaced with the gluconate salt of Na. This decreases chloride concentration from 122.6 to 7.6 mM while increasing that of gluconate from 0 to 115 mM. The stock solutions of the drugs in dimethyl sulfoxide (DMSO) were: 10 mM emamectin, 10 mM ivermectin, 100 mM picrotoxin. These were diluted in bath solution to obtain final concentrations.
The currents were normalized according to the extrapolated maximum current delivered by the Hill adjustment. In this way, the concentration that generates 50% of the maximum effect (EC50) and the Hill coefficient (nH) for each situation were obtained.

[1] = test system: coexpressed CrGluCl-D:CrGluCl-B; test: Voltage-clamp of oocytes coexpressing CrGluCl-D and CrGluCl-B; format: cell-based, Caligus rogercresseyi; settings: B:D ratio 1:1
Description: as §1, with “The oocytes were manually defolliculated on the same day of extraction and the following day 20 ng cRNA in nuclease-free water was injected into stage V-VI oocytes using a FemtoJet microinjector (Eppendorf). Finally, the injected oocytes were stored in 96 well plates containing Barth’s modified solution and kept at 16°C until experiment day.” left out
(§2) Current measurements at controlled membrane potentials (voltage-clamp experiments) were performed using two intracellular microelectrodes in defolliculated Xenopus oocytes previously microinjected with 20 ng of cRNA. […] The oocytes were recorded in a chamber (Model RC-1Z, Warner Instrumenst, USA) under continuous superfusion. […] Currents were recorded continuously during the experiments without interruptions for solution changes. […] The signal filtered at 1 kHz was acquired with a Digidata 1440A Analog-to-Digital Converter and analyzed with Axon pClamp 10.6 software. […]

[2] = test system: coexpressed CrGluCl-D:CrGluCl-C; test: Voltage-clamp of oocytes coinjected with CrGluCl-D and CrGluCl-C; format: cell-based, Caligus rogercresseyi; settings: D:C ratio 1:1
Description: as §1, with “The oocytes were manually defolliculated on the same day of extraction and the following day 20 ng cRNA in nuclease-free water was injected into stage V-VI oocytes using a FemtoJet microinjector (Eppendorf). Finally, the injected oocytes were stored in 96 well plates containing Barth’s modified solution and kept at 16°C until experiment day.” left out
as §2

CrGluCl-B M340T mutant = test: Voltage-clamp of oocytes expressing CrGluCl-B M340T mutant; format: cell-based, Caligus rogercresseyi; settings: 1 μM ivermectin
From the text: (§3) To identify putative GluCl subunits, we queried the NCBI Transcriptome Shotgun Assembly Sequence (TSA) Database for “glutamate-gated chloride channel Caligus”. The obtained sequences were translated and BLASTed (tBLASTn) against the C. rogercresseyi genome (WGS, BioProject ID 280098, NCBI) and against transcripts of L. salmonis database (https://licebase.org/). Primers for each of the putative new subunit found were designed to span the full length of the open reading frame (ORF) for each of them (B-E) (S1 Table, and arrows in Fig 1). Complete cDNAs were generated by RT-PCR from adult C. rogercresseyi samples from which putative full-length peptide sequences of CrGluCl-B, CrGluCl-C, CrGluCl-D and CrGluCl-E were obtained. Each PCR product was cloned in pGEM-T easy vector and sequenced. […]
as §2

[3] = test system: CrGluCl-B Q279E-Y361F mutant; test: Voltage-clamp of oocytes expressing CrGluCl-B Q279E-Y361F double mutant; format: cell-based, Caligus rogercresseyi; settings: 1 μM ivermectin, one-sample t-test
From the text: as §3, §2

| Compound | EC50 (AgGluCl) [nM] | current evoked by glutamate after ivermectin treatment (CrGluCl-B; 1 mM glutamate after 1 μM ivermectin, CrGluCl-B) [μA] | activation by ivermectin (EC50 Ivermectin column) (CrGluCl-B) | activation by ivermectin (EC50 Ivermectin column) (CrGluCl-B; listed as Ivermectin) | nH (ivermectin inhibition) (CrGluCl-B; CrGluCl-B, 3 mM glutamate) | IC50 (CrGluCl-B; CrGluCl-B, as restated in discussion, read-out: IC50 ivermectin inhibition of glutamate-activated current) [nM] | IC50 (CrGluCl-B; CrGluCl-B, continuous 3 mM glutamate, read-out: IC50 ivermectin antagonism of glutamate-elicited current) [nM] | nH (ivermectin) [1] | EC50 ([1]; read-out: EC50 ivermectin (Iver response to activation)) [nM] | Iver response to activation [2] | effect of ivermectin on current (CrGluCl-B M340T mutant) | effect of ivermectin on current [3] |
| --- | --- | --- | --- | --- | --- | --- | --- | --- | --- | --- | --- | --- |
| N[C@@H](CCC(=O)O)C(=O)O [glutamate, L-glutamate] | 30000 | – | – | – | – | – | – | – | – | – | – | – |
| ivermectin | – | 1.70 ± 1.69 | without effect | no effect; also recorded: Insensitive | -2.2 ± 0.5 and -2.2 | 340 | 342 ± 114 | 2.6 ± 1.1 | 278 ± 53 | Sensitive | no effect | small but significant effects |
